Our source for the IC50 values is US12662490B2, “Heterocyclic compounds” (Hoffmann-La Roche Inc., priority 2019, dated 2026).

In general, IC50 refers to the midpoint of a concentration-inhibition curve. Higher therefore signals lower potency.

The target in this experiment is T1, MAGL (Homo sapiens, UniProt Q99685).
T1 sequence (Q99685 1-303): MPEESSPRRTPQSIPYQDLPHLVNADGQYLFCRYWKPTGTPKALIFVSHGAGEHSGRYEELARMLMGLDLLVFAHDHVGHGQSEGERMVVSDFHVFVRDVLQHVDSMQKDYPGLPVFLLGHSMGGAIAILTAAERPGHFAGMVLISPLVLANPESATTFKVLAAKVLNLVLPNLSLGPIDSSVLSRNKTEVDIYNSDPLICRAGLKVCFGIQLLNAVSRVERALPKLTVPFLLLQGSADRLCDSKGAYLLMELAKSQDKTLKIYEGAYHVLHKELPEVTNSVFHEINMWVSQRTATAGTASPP
Briefly: 2-AG assay (MAGL inhibitory activity; hydrolysis of 2-arachidonoylglycerol to arachidonic acid followed by mass spectrometry). The class given is biochemical. Conditions: 15 min preincubation at RT, 8 μM 2-arachidonoylglycerol, 30 min at RT, RapidFire MS readout. The gist of the method: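 Compounds (final 12.5 μM to […], 3-fold steps) preincubated 15 min at RT with MAGL ([…]) in 50 mM TRIS, 1 mM EDTA, Tween buffer. Reaction started with 8 μM 2-arachidonoylglycerol, run 30 min at RT, quenched with ACN containing d8-arachidonic acid. Arachidonic acid quantified by RapidFire SPE-triple quadrupole MS (negative ESI), activity from arachidonic acid/d8 ratio.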

`COc1cccc(C(=O)N2CCN3C[C@@](O)(c4cccc(C(F)(F)F)c4)OC[C@@H]3C2)c1Cl` [Example 141, [(3R,9aS)-3-hydroxy-3-[3-(trifluoromethyl)phenyl]-1,4,6,7,9,9a-hexahydropyrazino[2,1-c][1,4]oxazin-8-yl]-(2-chloro-3-methoxy-phenyl)methanone] returned a half-maximal inhibitory concentration (IC50) of 288 nM.
In turn, `O=C(c1cccc(-c2cn[nH]c2)c1Cl)N1CCN2C[C@@H](c3ccc(F)c(Cl)c3)OC[C@@H]2C1` [Example 38, [(3R,9aS)-3-(3-chloro-4-fluoro-phenyl)-3,4,6,7,9,9a-hexahydro-1H-pyrazino[2,1-c][1,4]oxazin-8-yl]-[2-chloro-3-(1H-pyrazol-4-yl)phenyl]methanone] returned an IC50 of 1.9 nM.
Compound `Cc1cncnc1-c1cccc(C(=O)N2CCN3C[C@@H](c4ccc(F)c(Cl)c4)OC[C@@H]3C2)c1Cl` [Example 35, [(3R,9aS)-3-(3-chloro-4-fluoro-phenyl)-3,4,6,7,9,9a-hexahydro-1H-pyrazino[2,1-c][1,4]oxazin-8-yl]-[2-chloro-3-(5-methylpyrimidin-4-yl)phenyl]methanone] displayed an IC50 of 1080 nM. Compared with the last compound, the IC50 is about 570-fold higher.
As for `O=C(c1cnc2ccccc2c1Cl)N1CCN2C[C@@H](c3ccc(F)c(Cl)c3)OC[C@@H]2C1` [Example 16, [(3R,9aS)-3-(3-chloro-4-fluoro-phenyl)-3,4,6,7,9,9a-hexahydro-1H-pyrazino[2,1-c][1,4]oxazin-8-yl]-(4-chloro-3-quinolyl)methanone], half-maximal inhibition (IC50) was put at 132 nM.
For the compound `O=C(c1cccc(-c2c[nH]nc2F)c1F)N1CCN2C[C@@](O)(c3ccc(C(F)(F)F)nc3)OC[C@@H]2C1` [Example 78, [(3R,9aS)-3-hydroxy-3-[6-(trifluoromethyl)-3-pyridyl]-1,4,6,7,9,9a-hexahydropyrazino[2,1-c][1,4]oxazin-8-yl]-[2-fluoro-3-(3-fluoro-1H-pyrazol-4-yl)phenyl]methanone], the 50% inhibitory concentration (IC50) came out at 130 nM. This IC50 and that of the compound before are within 1.5-fold of each other.
The compound `Cc1c(-c2cccc(C(=O)N3CCN4C[C@@H](c5ccc(F)c(Cl)c5)OC[C@@H]4C3)c2Cl)cnn1C` [Example 39, [(3R,9aS)-3-(3-chloro-4-fluoro-phenyl)-3,4,6,7,9,9a-hexahydro-1H-pyrazino[2,1-c][1,4]oxazin-8-yl]-[2-chloro-3-(1,5-dimethylpyrazol-4-yl)phenyl]methanone] returned an IC50 of 49.7 nM.
The compound `COc1cccc(C(=O)N2CCN3C[C@@H](c4cc(C(F)(F)F)c(Cl)cn4)OC[C@@H]3C2)c1Cl` [Example 98, (2-chloro-3-methoxy-phenyl)-[(3S,9aS)-3-[5-chloro-4-(trifluoromethyl)-2-pyridyl]-3,4,6,7,9,9a-hexahydro-1H-pyrazino[2,1-c][1,4]oxazin-8-yl]methanone] had an IC50 of 30.7 nM.
As to `O=C(c1cccc(-c2c[nH]nc2F)c1Cl)N1CCN2C[C@@](O)(c3ccc(C(F)(F)F)cn3)OC[C@@H]2C1` [Example 85, [(3S,9aS)-3-hydroxy-3-[5-(trifluoromethyl)-2-pyridyl]-1,4,6,7,9,9a-hexahydropyrazino[2,1-c][1,4]oxazin-8-yl]-[2-chloro-3-(3-fluoro-1H-pyrazol-4-yl)phenyl]methanone], the IC50 is 38.2 nM.
The compound `O=C(c1cccc(-c2n[nH]cc2F)c1Cl)N1CCN2C[C@@H](c3cc(Cl)c[nH]c3=O)OC[C@@H]2C1` [Example 140, 3-[(3R,9aS)-8-[2-chloro-3-(4-fluoro-1H-pyrazol-3-yl)benzoyl]-3,4,6,7,9,9a-hexahydro-1H-pyrazino[2,1-c][1,4]oxazin-3-yl]-5-chloro-1H-pyridin-2-one] showed an IC50 of 277 nM.
Turning to `N#Cc1cc(-c2cc(F)cc(C(=O)N3CCN4C[C@@H](c5cc(Cl)c[nH]c5=O)OC[C@@H]4C3)c2Cl)c[nH]1` [Example 115, 4-[3-[(3R,9aS)-3-(5-chloro-2-oxo-1H-pyridin-3-yl)-3,4,6,7,9,9a-hexahydro-1H-pyrazino[2,1-c][1,4]oxazine-8-carbonyl]-2-chloro-5-fluoro-phenyl]-1H-pyrrole-2-carbonitrile], the IC50 came to 13.5 nM. Against the preceding compound, the IC50 is about 21-fold lower.
Under `COc1cccc(C(=O)N2CCN3CC(c4ccc(F)c(Cl)c4)SC[C@@H]3C2)c1Cl` (single isomer, unassigned) [Example 161] stands 3.1 nM; under `N#Cc1cc(-c2cccc(C(=O)N3CCN4C[C@@H](c5ccc(F)c(Cl)c5)OC[C@@H]4C3)c2Cl)n[nH]1` [Example 138, 3-[3-[(3R,9aS)-3-(3-chloro-4-fluoro-phenyl)-3,4,6,7,9,9a-hexahydro-1H-pyrazino[2,1-c][1,4]oxazine-8-carbonyl]-2-chloro-phenyl]-1H-pyrazole-5-carbonitrile], 190 nM.
In turn, `COc1cccc(C(=O)N2CCN3C[C@@](O)(c4ccc(C(F)(F)F)[nH]c4=O)OC[C@@H]3C2)c1Cl` [Example 136, 3-[(3R,9aS)-8-(2-chloro-3-methoxy-benzoyl)-3-hydroxy-1,4,6,7,9,9a-hexahydropyrazino[2,1-c][1,4]oxazin-3-yl]-6-(trifluoromethyl)-1H-pyridin-2-one] showed a half-maximal inhibitory concentration (IC50) of 152 nM.
Under `COc1cccc(C(=O)N2CCN3C[C@@H](c4ccc(Br)c(Cl)c4)OC[C@@H]3C2)c1Cl` [Example 110, [(3R,9aS)-3-(4-bromo-3-chloro-phenyl)-3,4,6,7,9,9a-hexahydro-1H-pyrazino[2,1-c][1,4]oxazin-8-yl]-(2-chloro-3-methoxy-phenyl)methanone] stands 5 nM; under `Cc1[nH]c(=O)ccc1-c1cccc(C(=O)N2CCN3C[C@@H](c4ccc(F)c(Cl)c4)OC[C@@H]3C2)c1Cl` [Example 124, 5-[3-[(3R,9aS)-3-(3-chloro-4-fluoro-phenyl)-3,4,6,7,9,9a-hexahydro-1H-pyrazino[2,1-c][1,4]oxazine-8-carbonyl]-2-chloro-phenyl]-6-methyl-1H-pyridin-2-one], 57.6 nM; under `O=C(c1cccc(-c2c[nH]nc2F)c1Cl)N1CCN2C[C@@](O)(c3ccc(C(F)(F)F)[nH]c3=O)OC[C@@H]2C1` [Example 100, 3-[(3R,9aS)-8-[2-chloro-3-(3-fluoro-1H-pyrazol-4-yl)benzoyl]-3-hydroxy-1,4,6,7,9,9a-hexahydropyrazino[2,1-c][1,4]oxazin-3-yl]-6-(trifluoromethyl)-1H-pyridin-2-one], 55.3 nM.
As to `COc1cccc(C(=O)N2CCN3C[C@@](O)(c4cccc(F)c4F)OC[C@@H]3C2)c1Cl` [Example 142, [(3R,9aS)-3-(2,3-difluorophenyl)-3-hydroxy-1,4,6,7,9,9a-hexahydropyrazino[2,1-c][1,4]oxazin-8-yl]-(2-chloro-3-methoxy-phenyl)methanone], inhibition was half-maximal at 332 nM (IC50).
For `COc1cccc(C(=O)N2CCN3C[C@@H](c4ccc(-c5cnco5)c(Cl)c4)OC[C@@H]3C2)c1Cl` [Example 137, [(3R,9aS)-3-(3-chloro-4-oxazol-5-yl-phenyl)-3,4,6,7,9,9a-hexahydro-1H-pyrazino[2,1-c][1,4]oxazin-8-yl]-(2-chloro-3-methoxy-phenyl)methanone], half-maximal inhibition (IC50) required 182 nM.
As for `Cc1[nH]ncc1-c1cccc(C(=O)N2CCN3C[C@@H](c4ccc(F)c(Cl)c4)OC[C@@H]3C2)c1Cl` [Example 26, [(3R,9aS)-3-(3-chloro-4-fluoro-phenyl)-3,4,6,7,9,9a-hexahydro-1H-pyrazino[2,1-c][1,4]oxazin-8-yl]-[2-chloro-3-(5-methyl-1H-pyrazol-4-yl)phenyl]methanone], the IC50 worked out at 10.6 nM.
Under `COc1cccc(C(=O)N2CCN3C[C@@](O)(c4nc5ccccc5s4)OC[C@@H]3C2)c1Cl` [Example 146, [(3S,9aS)-3-(1,3-benzothiazol-2-yl)-3-hydroxy-1,4,6,7,9,9a-hexahydropyrazino[2,1-c][1,4]oxazin-8-yl]-(2-chloro-3-methoxy-phenyl)methanone] stands 378 nM; under `COc1cccc(C(=O)N2CCN3C[C@](O)(c4nc5ccccc5[nH]4)OC[C@H]3C2)c1Cl` (single isomer, unassigned) [Example 61], 294 nM.
With `O=C(c1cccc(N2CC(O)C2)c1Cl)N1CCN2C[C@@H](c3ccc(F)c(Cl)c3)OC[C@@H]2C1` [Example 108, [(3R,9aS)-3-(3-chloro-4-fluoro-phenyl)-3,4,6,7,9,9a-hexahydro-1H-pyrazino[2,1-c][1,4]oxazin-8-yl]-[2-chloro-3-(3-hydroxyazetidin-1-yl)phenyl]methanone], the IC50 worked out at 10.5 nM.
Compound `O=C(c1cccc(-c2ccccn2)c1Cl)N1CCN2C[C@@H](c3ccc(F)c(Cl)c3)OC[C@@H]2C1` [Example 30, [(3R,9aS)-3-(3-chloro-4-fluoro-phenyl)-3,4,6,7,9,9a-hexahydro-1H-pyrazino[2,1-c][1,4]oxazin-8-yl]-[2-chloro-3-(2-pyridyl)phenyl]methanone] gave a concentration for half-maximal inhibition (IC50) of 49.2 nM.
Take `O=C(c1cccc(-c2c[nH]c(=O)o2)c1Cl)N1CCN2C[C@@](O)(c3ccc(Cl)c(Cl)c3)OC[C@@H]2C1` [Example 122, 5-[3-[(3R,9aS)-3-(3,4-dichlorophenyl)-3-hydroxy-1,4,6,7,9,9a-hexahydropyrazino[2,1-c][1,4]oxazine-8-carbonyl]-2-chloro-phenyl]-3H-oxazol-2-one]: the IC50 was found to be 48.6 nM.
For the compound `O=C(c1cccc(-c2cn[nH]c2C(F)(F)F)c1)N1CCN2C[C@@H](c3ccc(F)c(Cl)c3)OC[C@@H]2C1` [Example 103, [(3R,9aS)-3-(3-chloro-4-fluoro-phenyl)-3,4,6,7,9,9a-hexahydro-1H-pyrazino[2,1-c][1,4]oxazin-8-yl]-[3-[5-(trifluoromethyl)-1H-pyrazol-4-yl]phenyl]methanone], the IC50 is 28.2 nM.
